# BindingDB's records for doi:10.1016/s0960-894x(99)00034-7 (University of Tokyo, 1999)
# Molecular target: Dipeptidyl peptidase 4 (Homo sapiens, UniProt P27487)
# Test: Inhibitory activity against Dipeptidylpeptidase IV (DPP IV) in human acute lymphoblastic leukemia MOLT-4 cell line
# Sequence of Dipeptidyl peptidase 4 (P27487 whole entry): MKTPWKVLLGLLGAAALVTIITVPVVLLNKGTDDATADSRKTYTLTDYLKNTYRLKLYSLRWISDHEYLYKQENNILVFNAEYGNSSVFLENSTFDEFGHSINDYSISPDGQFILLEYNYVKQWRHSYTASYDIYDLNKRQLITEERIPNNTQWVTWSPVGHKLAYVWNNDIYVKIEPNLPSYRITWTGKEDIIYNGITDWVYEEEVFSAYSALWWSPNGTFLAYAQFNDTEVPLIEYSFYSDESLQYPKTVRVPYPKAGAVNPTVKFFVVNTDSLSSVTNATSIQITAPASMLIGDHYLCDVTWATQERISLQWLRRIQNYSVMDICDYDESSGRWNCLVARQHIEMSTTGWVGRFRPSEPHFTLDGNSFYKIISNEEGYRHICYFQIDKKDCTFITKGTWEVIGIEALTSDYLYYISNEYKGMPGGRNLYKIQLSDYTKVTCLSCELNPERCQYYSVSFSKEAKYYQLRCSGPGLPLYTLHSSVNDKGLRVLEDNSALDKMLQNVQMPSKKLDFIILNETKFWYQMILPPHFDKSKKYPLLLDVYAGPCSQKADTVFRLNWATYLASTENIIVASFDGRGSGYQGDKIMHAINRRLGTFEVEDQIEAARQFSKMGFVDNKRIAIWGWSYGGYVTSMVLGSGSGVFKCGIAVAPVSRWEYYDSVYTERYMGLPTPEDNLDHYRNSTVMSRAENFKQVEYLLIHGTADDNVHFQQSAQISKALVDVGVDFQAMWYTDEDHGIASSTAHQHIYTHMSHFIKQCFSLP
compound,measurement,value
CC(C)C[C@H](NC(=O)[C@@H](O)[C@H](N)Cc1ccccc1)C(=O)O,IC50,> 324 µM
